US12662451B2, “Chemical compounds and uses thereof” (GLAXOSMITHKLINE INTELLECTUAL PROPERTY (NO.4) LIMITED, priority 2023, dated 2026)
Structures can show the parent of a compound that is named as a salt. Where two headings read alike, the source gives them in different places.

Columns and labels:
[1] = Cell culture media unbound percentage and stability by rapid equilibrium dialysis (Example C); format: in vitro ADME; details: bovine, cell assay medium (RPMI-1640 with 10% fetal bovine serum), pH 7.4, rapid equilibrium dialysis, 4 hours at 37° C., read-out: Cell Culture Media Binding (% unbound)
How it was run: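 Compound spiked into cell culture medium at nominal 1 μM and dialysed against PBS (100 mM sodium phosphate + 150 mM NaCl, pH 7.4) by rapid equilibrium dialysis, triplicate, 4 h at 37° C with shaking. LC-MS/MS peak area ratios gave percent unbound (receiver/donor) and percent stability (240 min vs 0 min).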

[2] = biological target: T1, recombinant full-length WRN protein (1-1432) (Homo sapiens, UniProt Q14191); test: WRN unwinding activity, fluorogenic 384-well assay (Example A); format: biochemical; details: WRN unwinding activity, 4 hr; Table 2; read-out: 4 hr UNW pIC50 (converted)
T1 construct: recombinant full-length WRN protein (1-1432)
How it was run: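 200 pM enzyme (2× stock) preincubated with compound 4 h at ambient temperature, then 200 μM ATP and 12 nM quenched TAMRA-labelled dsDNA (2× stocks) added for 60 min; EDTA-quenched. Buffer 25 mM Tris pH 8.0, 5 mM NaCl, 2 mM MgCl2. Fluorescence at 525/598 nm; pIC50 from four-parameter fit.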

[3] = test system: SW48 human colorectal cancer cells (MSI-H cancer cells); test: SW48 cell viability, CellTiter-Glo, 120 hours (Example B); details: Homo sapiens
[4] = test system: SW48 human colorectal cancer cells; test: Calculated free drug potency in SW48 cell assay, corrected with media free fraction (Example C); format: cell-based; details: Homo sapiens, SW48, SW48 pCC50 corrected with measured free fraction in cell assay media
How it was run: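 Compound spiked at nominal 1 μM into cell assay medium and dialysed against PBS (100 mM sodium phosphate, 150 mM NaCl, pH 7.4) by rapid equilibrium dialysis, 4 h, 37 °C, shaking. Percent unbound from LC-MS/MS peak area ratios (240 min vs 0 min); cell assay concentrations corrected by this free fraction.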

[5] = SW48, 120 h, read-out: SW48 pCC50, SW48 cell viability, 120 hours incubation (converted), Table 2
[6] = SW48, read-out: SW48 pCC50, measured potency from Example B, as repeated in Table 3 (converted)

T1 sequence (Q14191 whole entry): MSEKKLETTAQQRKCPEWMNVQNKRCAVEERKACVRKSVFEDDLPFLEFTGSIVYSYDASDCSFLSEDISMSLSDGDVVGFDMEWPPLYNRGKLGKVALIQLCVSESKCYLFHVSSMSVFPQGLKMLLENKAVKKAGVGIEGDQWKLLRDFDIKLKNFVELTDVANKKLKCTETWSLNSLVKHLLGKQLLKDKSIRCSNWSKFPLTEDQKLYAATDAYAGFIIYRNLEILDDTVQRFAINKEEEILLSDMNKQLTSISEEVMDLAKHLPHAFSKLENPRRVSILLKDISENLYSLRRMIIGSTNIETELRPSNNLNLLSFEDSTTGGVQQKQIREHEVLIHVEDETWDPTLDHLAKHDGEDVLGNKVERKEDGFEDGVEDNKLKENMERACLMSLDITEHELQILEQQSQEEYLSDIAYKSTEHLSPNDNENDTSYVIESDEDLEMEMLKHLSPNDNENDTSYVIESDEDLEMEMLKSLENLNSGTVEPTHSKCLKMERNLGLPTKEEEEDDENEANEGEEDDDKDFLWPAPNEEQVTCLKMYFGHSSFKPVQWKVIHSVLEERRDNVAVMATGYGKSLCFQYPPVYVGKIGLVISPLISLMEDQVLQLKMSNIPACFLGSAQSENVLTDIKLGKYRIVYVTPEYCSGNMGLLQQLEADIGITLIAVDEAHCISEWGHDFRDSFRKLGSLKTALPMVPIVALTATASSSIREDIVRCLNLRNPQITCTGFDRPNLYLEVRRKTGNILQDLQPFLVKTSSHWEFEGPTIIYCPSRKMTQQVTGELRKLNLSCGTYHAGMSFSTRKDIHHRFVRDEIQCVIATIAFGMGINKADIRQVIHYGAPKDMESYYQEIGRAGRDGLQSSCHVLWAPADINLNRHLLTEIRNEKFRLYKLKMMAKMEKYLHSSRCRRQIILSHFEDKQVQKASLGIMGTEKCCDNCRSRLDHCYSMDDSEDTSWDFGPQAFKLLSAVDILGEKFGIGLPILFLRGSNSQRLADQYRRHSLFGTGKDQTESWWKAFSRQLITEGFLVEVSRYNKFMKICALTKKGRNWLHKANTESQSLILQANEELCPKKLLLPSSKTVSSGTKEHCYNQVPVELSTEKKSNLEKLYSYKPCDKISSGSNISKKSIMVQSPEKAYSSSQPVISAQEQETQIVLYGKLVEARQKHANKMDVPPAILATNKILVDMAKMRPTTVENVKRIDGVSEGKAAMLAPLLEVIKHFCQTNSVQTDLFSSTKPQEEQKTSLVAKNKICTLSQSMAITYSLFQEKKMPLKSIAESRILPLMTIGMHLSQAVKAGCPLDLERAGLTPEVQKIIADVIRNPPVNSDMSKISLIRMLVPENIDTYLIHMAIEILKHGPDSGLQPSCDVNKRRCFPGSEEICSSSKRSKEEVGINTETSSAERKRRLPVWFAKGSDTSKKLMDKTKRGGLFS

Row | fraction unbound at 4 h, 1 µM [1] | IC50 [2] | Compound | CC50 [3, 5] | CC50 [3, 6] | CC50 [4]
1 | 0.115 | 6.31 nM | CN1CCN(c2cc(S(=O)(=O)N(C)c3ccc([C@H]4CCC[C@@H](C(=O)Nc5ccc(C(F)(F)F)cc5F)[C@@H]4C(=O)O)cc3)cc3ccoc23)CC1 [Example 265, (1R,2R,6S)-2-((2-fluoro-4-(trifluoromethyl)phenyl)carbamoyl)-6-(4-((N-methyl-7-(4-methylpiperazin-1-yl)benzofuran)-5-sulfonamido)phenyl)cyclohexane-1-carboxylic acid] | 794 nM | 794 nM | 91.2 nM
2 | 0.141 | 1.26 nM | CN(c1ccc([C@H]2CCC[C@@H](C(=O)Nc3ccc(C(F)(F)F)cc3F)[C@@H]2C(=O)O)cc1)S(=O)(=O)c1ccc2c(c1)nc(N)n2C [Example 266, (1R,2S,6R)-2-(4-((2-amino-N,1-dimethyl-1H-benzo[d]imidazole)-5-sulfonamido)phenyl)-6-((2-fluoro-4-(trifluoromethyl)phenyl)carbamoyl)cyclohexane-1-carboxylic acid] | 398 nM | 398 nM | 56.2 nM
3 | 0.226 | 1 nM | CN(c1ccc([C@H]2CCC[C@@H](C(=O)Nc3ccc(C(F)(F)F)cc3F)[C@@H]2C(=O)O)cc1)S(=O)(=O)c1ccc2c(c1)nc(CCN)n2C [Example 267, (1R,2S,6R)-2-(4-((2-(2-aminoethyl)-N,1-dimethyl-1H-benzo[d]imidazole)-5-sulfonamido)phenyl)-6-((2-fluoro-4-(trifluoromethyl)phenyl)carbamoyl)cyclohexane-1-carboxylic acid hydrochloride] | 794 nM | 794 nM | 178 nM
4 | 0.236 | 1.58 nM | CN(C)CCc1nc2cc(S(=O)(=O)N(C)c3ccc([C@H]4CCC[C@@H](C(=O)Nc5ccc(C(F)(F)F)cc5F)[C@@H]4C(=O)O)cc3)ccc2n1C [Example 272, (1R,2S,6R)-2-(4-((2-(2-(dimethylamino)ethyl)-N,1-dimethyl-1H-benzo[d]imidazole)-5-sulfonamido)phenyl)-6-((2-fluoro-4-(trifluoromethyl)phenyl)carbamoyl)cyclohexane-1-carboxylic acid] | 158 nM | 158 nM | 37.2 nM
5 | 0.0082 | 5.01 nM | CN(c1ccc([C@H]2CCC[C@@H](COc3ccc(C(F)(F)F)cc3)[C@@H]2C(=O)O)cc1)S(=O)(=O)c1ccc2c(c1)nc(CCN)n2C [Example 273] | 7940 nM | 7940 nM | 64.6 nM
6 | 0.0083 | 2 nM | CN(C)CCc1nc2cc(S(=O)(=O)N(C)c3ccc([C@H]4CCC[C@@H](COc5ccc(C(F)(F)F)cc5)[C@@H]4C(=O)O)cc3)ccc2n1C [Example 275] | 5010 nM | 5010 nM | 41.7 nM
7 | 0.197 | 0.631 nM | Cc1nc2cc(S(=O)(=O)N(C)c3ccc([C@H]4CCC[C@@H](C(=O)Nc5ccc(C(F)(F)F)cc5F)[C@@H]4C(=O)O)cc3)ccc2n1CCN [Example 277, (1R,2S,6R)-2-(4-((1-(2-aminoethyl)-N,2-dimethyl-1H-benzo[d]imidazole)-5-sulfonamido)phenyl)-6-((2-fluoro-4-(trifluoromethyl)phenyl)carbamoyl)cyclohexane-1-carboxylic acid] | 1580 nM | 1580 nM | 309 nM
8 | 0.208 | 0.631 nM | Cc1nc2cc(S(=O)(=O)N(C)c3ccc([C@H]4CCC[C@@H](C(=O)Nc5ccc(C(F)(F)F)cc5F)[C@@H]4C(=O)O)cc3)ccc2n1CCN(C)C [Example 278, (1R,2S,6R)-2-(4-((1-(2-(dimethylamino)ethyl)-N,2-dimethyl-1H-benzo[d]imidazole)-5-sulfonamido)phenyl)-6-((2-fluoro-4-(trifluoromethyl)phenyl)carbamoyl)cyclohexane-1-carboxylic acid] | 126 nM | 126 nM | 26.3 nM
9 | 0.079 | 2 nM | CCO[C@@H]1C[C@H](c2ccc(N(C)S(=O)(=O)c3ccc4c(c3)nc3n4CCCC3)cc2)[C@@H](C(=O)O)[C@H](C(=O)Nc2ccc(C(F)(F)F)cc2F)C1 [Example 279, (1R,2R,4R,6S)-4-ethoxy-2-((2-fluoro-4-(trifluoromethyl)phenyl)carbamoyl)-6-(4-((N-methyl-1,2,3,4-tetrahydrobenzo[4,5]imidazo[1,2-a]pyridine)-7-sulfonamido)phenyl)cyclohexane-1-carboxylic acid] | 126 nM | 126 nM | 10 nM
10 | 0.148 | 1.58 nM | CCO[C@@H]1C[C@H](c2ccc(N(C)S(=O)(=O)c3ccc4[nH]c(C)nc4c3)cc2)[C@@H](C(=O)O)[C@H](C(=O)Nc2ccc(C(F)(F)F)cc2F)C1 [Example 281, (1R,2S,4R,6R)-2-(4-((N,2-dimethyl-1H-benzo[d]imidazole)-5-sulfonamido)phenyl)-4-ethoxy-6-((2-fluoro-4-(trifluoromethyl)phenyl)carbamoyl)cyclohexane-1-carboxylic acid] | 794 nM | 794 nM | 117 nM
11 | 0.549 | 31.6 nM | CN(c1ccc([C@H]2CCC[C@@H](C(=O)Nc3ccc(C(F)(F)F)cc3F)[C@@H]2C(=O)O)cc1)S(C)(=O)=O [Example 285, (1R,2R,6S)-2-((2-fluoro-4-(trifluoromethyl)phenyl)carbamoyl)-6-(4-(N-methylmethylsulfonamido)phenyl) cyclohexane-1-carboxylic acid] | 6310 nM | 6310 nM | 3470 nM
12 | 0.0214 | 5.01 nM | CCO[C@@H]1C[C@H](c2ccc(NS(=O)(=O)c3ccc4c(c3)nc(C)n4C)cc2)[C@@H](C(=O)O)[C@H](C(=O)Nc2ccc(C(F)(F)F)cc2F)C1 [Example 288, (1R,2S,4R,6R)-2-(4-((1,2-dimethyl-1H-benzo[d]imidazole)-5-sulfonamido)phenyl)-4-ethoxy-6-((2-fluoro-4-(trifluoromethyl)phenyl)carbamoyl)cyclohexane-1-carboxylic acid] | 1000 nM | 1000 nM | 21.4 nM
13 | 0.412 | 1.58 nM | Cc1nc2cc(S(=O)(=O)N(C)c3ccc([C@H]4CCC[C@@H](C(=O)Nc5ccc(C(F)(F)F)cc5F)[C@@H]4C(=O)O)cc3)cc(CCN)c2n1C [Example 289, (1R,2S,6R)-2-(4-((7-(2-aminoethyl)-N,1,2-trimethyl-1H-benzo[d]imidazole)-5-sulfonamido)phenyl)-6-((2-fluoro-4-(trifluoromethyl)phenyl)carbamoyl)cyclohexane-1-carboxylic acid, hydrochloride] | 10000 nM | – | 4070 nM
14 | 0.411 | 1.58 nM | Cc1nc2cc(S(=O)(=O)N(C)c3ccc([C@H]4CCC[C@@H](C(=O)Nc5ccc(C(F)(F)F)cc5F)[C@@H]4C(=O)O)cc3)cc(CCN(C)C)c2n1C [Example 290, (1R,2S,6R)-2-(4-((7-(2-(dimethylamino)ethyl)-N,1,2-trimethyl-1H-benzo[d]imidazole)-5-sulfonamido)phenyl)-6-((2-fluoro-4-(trifluoromethyl)phenyl)carbamoyl)cyclohexane-1-carboxylic acid] | 398 nM | 398 nM | 162 nM
